The results in this text go back to patent publication US5298492A, “Diamino acid derivatives as antihypertensives” (Schering Corporation, priority 1992, dated 1994).

As usually defined, the IC50 is the point on the concentration scale where inhibition reaches its midpoint.

Test [1] concerns the target NEP (neutral endopeptidase) (Homo sapiens, UniProt P08473). Description: NEP inhibition IC50. Type of test: biochemical.
Test [2] addresses ACE (angiotensin converting enzyme) (Homo sapiens, UniProt P12821). Put plainly: ACE inhibition IC50. The class given is biochemical.

A value given as a limit tells only on which side of the number the result lay.

Chain of ACE (angiotensin converting enzyme) (P12821 30-1306, species assumed): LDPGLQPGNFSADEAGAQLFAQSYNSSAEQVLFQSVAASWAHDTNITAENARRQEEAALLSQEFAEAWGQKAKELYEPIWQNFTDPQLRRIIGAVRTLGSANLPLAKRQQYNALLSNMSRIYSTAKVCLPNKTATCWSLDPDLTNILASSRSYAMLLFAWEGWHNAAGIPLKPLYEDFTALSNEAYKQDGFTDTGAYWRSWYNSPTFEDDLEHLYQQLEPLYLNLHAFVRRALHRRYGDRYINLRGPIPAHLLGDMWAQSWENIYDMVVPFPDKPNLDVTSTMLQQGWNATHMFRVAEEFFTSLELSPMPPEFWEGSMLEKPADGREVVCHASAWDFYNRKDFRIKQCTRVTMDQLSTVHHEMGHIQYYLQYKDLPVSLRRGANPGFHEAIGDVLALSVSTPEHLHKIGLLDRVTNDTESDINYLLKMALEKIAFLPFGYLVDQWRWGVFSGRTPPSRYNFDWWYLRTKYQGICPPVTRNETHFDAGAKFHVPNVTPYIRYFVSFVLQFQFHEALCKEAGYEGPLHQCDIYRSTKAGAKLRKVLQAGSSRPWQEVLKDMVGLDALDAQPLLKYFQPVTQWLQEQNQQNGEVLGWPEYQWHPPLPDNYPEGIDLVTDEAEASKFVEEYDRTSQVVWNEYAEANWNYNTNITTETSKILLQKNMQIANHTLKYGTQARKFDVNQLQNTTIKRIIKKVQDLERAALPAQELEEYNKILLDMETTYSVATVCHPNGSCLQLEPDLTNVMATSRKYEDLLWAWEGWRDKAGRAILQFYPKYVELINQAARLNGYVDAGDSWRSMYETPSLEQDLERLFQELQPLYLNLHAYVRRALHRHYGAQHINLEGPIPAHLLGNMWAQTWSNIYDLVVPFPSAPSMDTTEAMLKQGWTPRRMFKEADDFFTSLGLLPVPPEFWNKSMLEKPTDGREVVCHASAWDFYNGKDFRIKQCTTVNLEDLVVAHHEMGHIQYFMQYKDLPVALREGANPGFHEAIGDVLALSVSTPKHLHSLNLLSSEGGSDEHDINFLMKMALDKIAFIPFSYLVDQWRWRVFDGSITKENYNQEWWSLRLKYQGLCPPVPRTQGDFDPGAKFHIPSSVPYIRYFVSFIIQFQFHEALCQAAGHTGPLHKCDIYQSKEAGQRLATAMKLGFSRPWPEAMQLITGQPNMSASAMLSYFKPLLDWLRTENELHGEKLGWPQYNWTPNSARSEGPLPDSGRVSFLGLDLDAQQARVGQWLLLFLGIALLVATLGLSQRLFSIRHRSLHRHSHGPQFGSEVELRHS
Chain of NEP (neutral endopeptidase) (P08473 whole entry, species assumed): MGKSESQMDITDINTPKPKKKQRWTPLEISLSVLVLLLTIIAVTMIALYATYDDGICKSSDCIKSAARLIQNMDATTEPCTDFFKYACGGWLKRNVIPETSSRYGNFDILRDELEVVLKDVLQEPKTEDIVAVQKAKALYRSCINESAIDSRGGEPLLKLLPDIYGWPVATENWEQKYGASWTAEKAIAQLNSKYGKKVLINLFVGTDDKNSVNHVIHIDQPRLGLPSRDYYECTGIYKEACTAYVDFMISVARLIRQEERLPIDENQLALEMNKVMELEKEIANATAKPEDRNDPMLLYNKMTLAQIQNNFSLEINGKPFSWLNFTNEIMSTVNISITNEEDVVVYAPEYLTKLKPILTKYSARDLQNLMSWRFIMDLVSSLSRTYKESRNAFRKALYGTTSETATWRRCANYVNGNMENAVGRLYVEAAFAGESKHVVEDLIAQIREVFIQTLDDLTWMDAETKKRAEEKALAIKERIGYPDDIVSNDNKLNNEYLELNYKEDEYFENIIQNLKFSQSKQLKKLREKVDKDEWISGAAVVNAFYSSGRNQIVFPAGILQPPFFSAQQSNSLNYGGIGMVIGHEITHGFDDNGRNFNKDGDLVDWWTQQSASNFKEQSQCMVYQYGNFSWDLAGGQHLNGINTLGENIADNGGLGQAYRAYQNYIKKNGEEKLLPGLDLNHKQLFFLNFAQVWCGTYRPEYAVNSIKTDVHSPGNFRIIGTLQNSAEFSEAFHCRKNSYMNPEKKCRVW

Consider `NCCCCCC(=O)NC[C@H](N[C@@H](Cc1ccccc1)C(=O)N[C@@H](Cc1ccc(O)cc1)C(=O)O)C(=O)O` [drawing 100: R1=H; R5=OH; R6=OH; Z=NH2], for which the half-maximal inhibitory concentration (IC50) was determined as 16 nM in test [1] and 60 nM in test [2].
As for `CS(=O)(=O)N[C@@H](CCCCN)C(=O)NC[C@H](NC1(C(=O)N[C@@H](Cc2ccc(O)cc2)C(=O)O)CC1)C(=O)O`, the half-maximal inhibitory concentration (IC50) in test [1] is over 300 nM; in test [2] it was 150 nM.
For `CCC[C@H](N[C@@H](CNC(=O)[C@H](CCCCN)NS(C)(=O)=O)C(=O)O)C(=O)N[C@@H](Cc1ccc(O)cc1)C(=O)O` the same measures were 6 nM and 30 nM.
For `CC(C)[C@H](N[C@@H](CNC(=O)[C@H](CCCCN)NS(C)(=O)=O)C(=O)O)C(=O)N[C@@H](Cc1ccc(O)cc1)C(=O)O` the same measures were 7 nM and 50 nM.
For `CS(=O)(=O)N[C@@H](CCCCN)C(=O)NC[C@H](N[C@H](C(=O)N[C@@H](Cc1ccc(O)cc1)C(=O)O)C1CCCCC1)C(=O)O` the same measures were over 300 nM and 121 nM.
In the case of `CCOC(=O)[C@H](CNC(=O)[C@H](CCCCNC(=O)OCc1ccccc1)NS(C)(=O)=O)N[C@@H](Cc1ccccc1)C(=O)N[C@@H](Cc1ccc(O)cc1)C(=O)O`, the IC50 is over 300 nM in test [1] and over 1000 nM in test [2].
On to `CCC[C@H](N[C@@H](CNC(=O)[C@H](CCCCN)NS(C)(=O)=O)C(=O)O)C(=O)N[C@@H](Cc1cccc(NS(C)(=O)=O)c1)C(=O)O`, for which the IC50 in test [1] came out at 200 nM; in test [2], 40 nM.
Consider `COC(=O)[C@H](CNC(=O)[C@H](CCCCNC(=O)OCc1ccccc1)NS(C)(=O)=O)N[C@H](C(=O)N[C@@H](Cc1ccc(O)cc1)C(=O)O)C(C)C`, for which the figures for the IC50 in test [1] and in test [2] were 240 nM and over 1000 nM, respectively.
For `CS(=O)(=O)N[C@@H](CCCCN)C(=O)NC[C@H](N[C@@H](Cc1ccccc1)C(=O)N[C@@H](Cc1ccc(O)cc1)C(=O)O)C(=O)O` [drawing 100: R1=CH3SO2NH; R5=OH; R6=OH; Z=NH2] the same measures were 35 nM and 50 nM.
For `CCOC(=O)[C@H](CNC(=O)[C@H](CCCCN)NS(C)(=O)=O)N[C@@H](Cc1ccccc1)C(=O)N[C@@H](Cc1ccc(O)cc1)C(=O)O` the same measures were 300 nM and over 1000 nM.
For `CCOC(=O)[C@H](Cc1ccc(O)cc1)NC(=O)[C@H](Cc1ccccc1)N[C@@H](CNC(=O)[C@H](CCCCNC(=O)OCc1ccccc1)NS(C)(=O)=O)C(=O)O` the same measures were 38 nM and 50 nM.
On to `CS(=O)(=O)N[C@@H](CCCCN)C(=O)NC[C@H](NC(C(=O)N[C@@H](Cc1ccc(O)cc1)C(=O)O)C1CC1)C(=O)O` (single isomer, unassigned) [listing 1 of 2 here], for which the figures for the IC50 in test [1] and in test [2] were 40 nM and 15 nM, respectively.
For `CS(=O)(=O)Nc1cccc(C[C@H](NC(=O)[C@H](Cc2ccccc2)N[C@@H](CNC(=O)[C@H](CCCCN)NS(C)(=O)=O)C(=O)O)C(=O)O)c1` the same measures were 25 nM and 15 nM.
In test [1], `CS(=O)(=O)N[C@@H](CCCCN)C(=O)NC[C@H](NC1(C(=O)N[C@@H](Cc2ccc(O)cc2)C(=O)O)CCC1)C(=O)O` gave a half-inhibitory concentration (IC50) of 42 nM.
`O=C(CCCCCNC(=O)OCc1ccccc1)NC[C@H](N[C@@H](Cc1ccccc1)C(=O)N[C@@H](Cc1ccc(O)cc1)C(=O)O)C(=O)O` [drawing 100: R1=H; R5=OH; R6=OH; Z=CbzNH]: the IC50 in test [1] stood at 30 nM; in test [2], 65 nM.
For `COC(=O)[C@H](CNC(=O)[C@H](CCCCN)NS(C)(=O)=O)N[C@H](C(=O)N[C@@H](Cc1ccc(O)cc1)C(=O)O)C(C)C` the same measures were over 300 nM and over 1000 nM.
As for `CCC[C@H](N[C@@H](CNC(=O)[C@H](CCCCN)NS(C)(=O)=O)C(=O)O)C(=O)N[C@@H](Cc1ccc(O)cc1)C(=O)OC`, in test [1], the IC50 was found to be 270 nM.
For the compound `CS(=O)(=O)N[C@@H](CCCCNC(=O)OCc1ccccc1)C(=O)NC[C@H](N[C@H](C(=O)N[C@@H](Cc1ccc(O)cc1)C(=O)O)C1CCCCC1)C(=O)O`, the IC50 in test [1] is over 300 nM; in test [2] it was 250 nM.
For `CCC[C@H](N[C@@H](CNC(=O)[C@H](CCCCNC(=O)OCc1ccccc1)NS(C)(=O)=O)C(=O)O)C(=O)N[C@@H](Cc1cccc(NS(C)(=O)=O)c1)C(=O)OCC` the same measures were 70 nM and 400 nM.
On to `CCC[C@H](N[C@@H](CNC(=O)[C@H](CCCCNC(=O)OCc1ccccc1)NS(C)(=O)=O)C(=O)O)C(=O)N[C@@H](Cc1ccc(O)cc1)C(=O)OC`, for which the figures for the concentration for half-maximal inhibition (IC50) in test [1] and in test [2] were 78 nM and 300 nM, respectively.
For `CS(=O)(=O)N[C@@H](CCCCN)C(=O)NC[C@H](NC(C(=O)N[C@@H](Cc1ccc(O)cc1)C(=O)O)C1CC1)C(=O)O` (single isomer, unassigned) [listing 2 of 2 here] the same measures were over 300 nM and 300 nM.
`CS(=O)(=O)N[C@@H](CCCCN)C(=O)NC[C@H](NC1(C(=O)N[C@@H](Cc2ccc(O)cc2)C(=O)O)CCCCC1)C(=O)O`: half-maximal inhibition in test [1] (IC50) required 190 nM.
Turning to `CS(=O)(=O)N[C@@H](CCCCNC(=O)OCc1ccccc1)C(=O)NC[C@H](N[C@@H](Cc1ccccc1)C(=O)N[C@@H](Cc1ccc(O)cc1)C(=O)O)C(=O)O`, the IC50 in test [1] came to 18 nM; in test [2], 9 nM.
For `CS(=O)(=O)N[C@@H](CCCCN)C(=O)NC[C@H](N[C@@H](Cc1ccccc1)C(=O)N[C@@H](Cc1ccc(O)cc1)C(=O)OCCc1ccccc1)C(=O)O` the same measures were 68 nM and 175 nM.
Turning to `CCOC(=O)[C@H](Cc1ccc(O)cc1)NC(=O)[C@H](Cc1ccccc1)N[C@@H](CNC(=O)[C@H](CCCCN)NS(C)(=O)=O)C(=O)O`, the half-inhibitory concentration (IC50) in test [1] is 40 nM; in test [2], 650 nM.
For `CC(C)[C@H](N[C@@H](CNC(=O)[C@H](CCCCNC(=O)OCc1ccccc1)NS(C)(=O)=O)C(=O)O)C(=O)N[C@@H](Cc1ccc(O)cc1)C(=O)O` the same measures were 2 nM and 30 nM.
For `CS(=O)(=O)N[C@@H](CCCCN)C(=O)NC[C@H](NC1(C(=O)N[C@@H](Cc2ccc(O)cc2)C(=O)O)CCCC1)C(=O)O` the same measures were 35 nM and 45 nM.
Regarding `CCC[C@H](N[C@@H](CNC(=O)[C@H](CCCCNC(=O)OCc1ccccc1)NS(C)(=O)=O)C(=O)O)C(=O)N[C@@H](Cc1ccc(O)cc1)C(=O)O`, the figures for the 50% inhibitory concentration (IC50) in test [1] and in test [2] were 2 nM and 15 nM, respectively.
For `CCN=C(NCC)NCCCC[C@H](NS(C)(=O)=O)C(=O)NC[C@H](N[C@@H](Cc1ccccc1)C(=O)N[C@@H](Cc1ccc(O)cc1)C(=O)O)C(=O)O` the same measures were 95 nM and 8 nM.
